The numbers were not newly measured in US10188772B2, “Drug delivery medical device” (Micell Technologies, Inc., priority 2012, dated 2019), which cites them from elsewhere.

In the series the target is FKBP12 (Homo sapiens, UniProt P62942).
FKBP12, sequence (P62942 whole entry, species assumed): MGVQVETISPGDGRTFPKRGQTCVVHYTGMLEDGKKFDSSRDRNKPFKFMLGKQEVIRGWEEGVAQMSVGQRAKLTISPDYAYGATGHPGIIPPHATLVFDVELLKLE
As for `CO[C@H]1C[C@@H]2CC[C@@H](C)[C@@](O)(O2)C(=O)C(=O)N2CCCC[C@H]2C(=O)O[C@H]([C@H](C)C[C@@H]2CC[C@@H](OCCO)[C@H](OC)C2)CC(=O)[C@H](C)/C=C(\C)[C@@H](O)[C@@H](OC)C(=O)[C@H](C)C[C@H](C)/C=C/C=C/C=C/1C` [Everolimus, 40-O-(2-Hydroxyethyl)rapamycin], the FKBP12 binding is 1.8 to 2.6 nM.

Regarding `CC[C@@H]1/C=C(\C)C[C@H](C)C[C@H](OC)[C@H]2O[C@@](O)(C(=O)C(=O)N3CCCC[C@H]3C(=O)O[C@H](/C(C)=C/[C@@H]3CC[C@H](Cl)[C@H](OC)C3)[C@H](C)[C@@H](O)CC1=O)[C@H](C)C[C@@H]2OC` [Pimecrolimus], the FKBP12 binding entry is listed as “about 1.2 nM”.

With `C=CC[C@@H]1/C=C(\C)C[C@H](C)C[C@H](OC)[C@H]2O[C@@](O)(C(=O)C(=O)N3CCCC[C@H]3C(=O)O[C@H](/C(C)=C/[C@@H]3CC[C@@H](O)[C@H](OC)C3)[C@H](C)[C@@H](O)CC1=O)[C@H](C)C[C@@H]2OC` [Tacrolimus], the FKBP12 binding was 0.2 to 0.4 nM.

As to `CO[C@H]1C[C@@H]2CC[C@@H](C)[C@@](O)(O2)C(=O)C(=O)N2CCCC[C@H]2C(=O)O[C@H]([C@H](C)C[C@@H]2CC[C@@H](OC(=O)C(C)(CO)CO)[C@H](OC)C2)CC(=O)[C@H](C)/C=C(\C)[C@@H](O)[C@@H](OC)C(=O)[C@H](C)C[C@H](C)/C=C/C=C/C=C/1C` [Temsirolimus, 42-[3-hydroxy-2-(hydroxymethyl)-2-methylpropanoate]rapamycin], the FKBP12 binding entry was “about the same as Sirolimus”.

Take `CO[C@H]1C[C@@H]2CC[C@@H](C)[C@@](O)(O2)C(=O)C(=O)N2CCCC[C@H]2C(=O)O[C@H]([C@H](C)C[C@@H]2CC[C@H](n3cnnn3)[C@H](OC)C2)CC(=O)[C@H](C)/C=C(\C)[C@@H](O)[C@@H](OC)C(=O)[C@H](C)C[C@H](C)/C=C/C=C/C=C/1C` [Zotarolimus]: the FKBP12 binding was 2.0 to 3.2 nM.
